Source: patent publication US3991199A, “Pyridoindoles” (Endo Laboratories, Inc., priority 1974, dated 1976)
Where a name gives a salt, the structure may show the parent alone. Read-outs that look alike come from different tables or passages of the source.

How the values were obtained:
[1] = tested on: phenyl-p-benzoquinone writhing; assay: Phenylquinone Writhing (PQW), analgesic; format: in vivo; details: po, read-out: PQW mouse ED50
locomotor activity = assay: Decreased Locomotor Activity (LMA), sedative; format: in vivo, mouse; details: for minimal effective dose: po, read-out: LMA mouse MED
[2] = tested on: conditioned avoidance response; assay: Rat Conditioned Avoidance Response (CAR), major tranquilizer; format: in vivo; details: for ED50: po, read-out: CAR rat ED50
[3] = tested on: conflict (approach-avoidance); assay: Rat Conflict (Approach-Avoidance) Test (Conf), minor tranquilizer; format: in vivo; details: for minor tranquilizing (anxiolytic) activity: in words
blood pressure = assay: Hypotensive (Hypo): blood pressure in conscious rats; format: in vivo; details: Rattus norvegicus, oral dose, read-out: Hypo rat MED
[4] = tested on: pressor response to epinephrine and/or nor-epinephrine; assay: Adrenergic Blockage (AB); format: in vivo; details: Canis lupus familiaris; intravenous, dog; read-out: AB dog MED
[5] = U.S. Pat. No. 3,657,254; cited from earlier work
[6] = tested on: conflict (approach-avoidance); details: in words, background statement; cited from earlier work

c1ccc(N2c3ccccc3[C@@H]3CN(CC4CCCC4)CC[C@H]32)cc1 (racemic) [compound 2 of Table II, (±)-trans-2-(cyclopentylmethyl)-2,3,4,4a,5,9b-hexahydro-5-phenyl-1H-pyrido[4,3-b]indole]
ED50 ([1]; mouse): 1 mg/kg | minimal effective dose (locomotor activity; mouse): 10 mg/kg | major tranquilizing (antipsychotic) activity ([2]; in words): major tranquilizer (antipsychotic) activity | ED50 ([2]; rat): 5 mg/kg | Conf rat MED ([3]; po, rat): I | minimal effective dose (blood pressure): 10 mg/kg | minimal effective dose [4]: 0.03 mg/kg

Cl.c1ccc(N2c3ccccc3[C@@H]3CN(CC45CC6CC(CC(C6)C4)C5)CC[C@H]32)cc1 (racemic) [compound 4 of Table II, (±)-trans-2-(1-adamantylmethyl)-2,3,4,4a,5,9b-hexahydro-5-phenyl-1H-pyrido[4,3-b]indole, hydrochloride]
ED50 ([1]; mouse): 19 mg/kg | minimal effective dose (locomotor activity; mouse): 30 mg/kg | major tranquilizing (antipsychotic) activity ([2]; in words): exhibit major tranquilizing (antipsychotic) activity | ED50 ([2]; rat): 50 mg/kg | minor tranquilizing (anxiolytic) activity [3]: exhibit minor tranquilizing (anxiolytic) activity at doses which are not sedating | minimal effective dose ([3]; po, rat, read-out: Conf rat MED): 10 mg/kg | minimal effective dose ([3]; po, rat, comparison table, read-out: Rat Conf.): 10 mg/kg | minimal effective dose [4]: > 1 mg/kg

Cl.c1ccc(N2c3ccccc3[C@@H]3CN(CC4C5CC6CC(C5)CC4C6)CC[C@H]32)cc1 (mixture of isomers) [compound 14 of Table II, (±)-trans-2-(2-adamantylmethyl)-2,3,4,4a,5,9b-hexahydro-5-phenyl-1H-pyrido[4,3-b]indole, hydrochloride]
ED50 ([1]; mouse): 27 mg/kg | minimal effective dose (locomotor activity; mouse): 2 mg/kg | major tranquilizing (antipsychotic) activity ([2]; in words): exhibit major tranquilizing (antipsychotic) activity | minor tranquilizing (anxiolytic) activity [3]: exhibit minor tranquilizing (anxiolytic) activity at doses which are not sedating | Conf rat, active dose ([3]; po, rat, ** active at this dose, MED not yet determined): 10 mg/kg

c1ccc(N2c3ccccc3[C@@H]3CN(CC4CCCCC4)CC[C@H]32)cc1 (relative stereo)
ED50 ([1]; mouse): 4 mg/kg | minimal effective dose (locomotor activity; mouse): 3 mg/kg | ED50 ([2]; rat): 20 mg/kg | Conf rat MED ([3]; po, rat): I | minimal effective dose (blood pressure): 10 mg/kg | minimal effective dose [4]: 0.03 mg/kg

CC12CCC(CN3CC[C@@H]4[C@@H](C3)c3ccccc3N4c3ccccc3)(CC1)CC2 (relative stereo)
ED50 ([1]; mouse): 80 mg/kg | minimal effective dose (locomotor activity; mouse): 30 mg/kg

CC(Cl)=CCN1CC[C@@H]2[C@@H](C1)c1ccccc1N2c1ccccc1 (relative stereo)
ED50 ([1]; mouse): 2 mg/kg | minimal effective dose (locomotor activity; mouse): 1 mg/kg

c1ccc(CCN2CC[C@@H]3[C@@H](C2)c2ccccc2N3c2ccccc2)cc1 (relative stereo)
ED50 ([1]; mouse): 2 mg/kg | minimal effective dose (locomotor activity; mouse): 10 mg/kg

CC12C=CC(CN3CC[C@@H]4[C@@H](C3)c3ccccc3N4c3ccccc3)(CC1)CC2 (relative stereo)
ED50 ([1]; mouse): 14 mg/kg | minimal effective dose (locomotor activity; mouse): 30 mg/kg

C1=CCC(CN2CC[C@@H]3[C@@H](C2)c2ccccc2N3c2ccccc2)CC1 (relative stereo)
ED50 ([1]; mouse): 2 mg/kg | minimal effective dose (locomotor activity; mouse): 3 mg/kg

Cc1ccc2c(c1)[C@@H]1CN(C)CC[C@@H]1N2 (relative stereo) [2,8-dimethyl-2,3,4,4a,5,9b-hexahydro-1H-pyrido[4,3-b]]indole]
mechanism of action [5]: adrenergic blockade | psychotropic effects [5]: neuroleptic, antidepressive, and energizing effects

c1ccc(N2c3ccccc3[C@@H]3CN(C[C@H]4[C@@H]5CCCC[C@@H]54)CC[C@H]32)cc1 (relative stereo) [compound 9 of Table II, (±)-trans-2,3,4,4a,5,9b-hexahydro-2-(exo-7-norcarylmethyl)-5-phenyl-1H-pyrido[4,3-b]indole, hydrochloride]
ED50 ([1]; mouse): 1 mg/kg | reducing locomotor activity (locomotor activity; in words): potency in reducing locomotor activity | minimal effective dose (locomotor activity; mouse): 0.1 mg/kg

CC(=O)Oc1ccccc1C(=O)O [aspirin, reference compound]
ED50 ([1]; Mus musculus): 94 mg/kg

CN(C)CCCN1c2ccccc2Sc2ccc(Cl)cc21 [chlorpromazine, reference compound]
minimal effective dose (locomotor activity; Mus musculus): 2 to 10 mg/kg | ED50 ([2]; Rattus norvegicus): 6 mg/kg | Conf rat MED ([3]; rat, in vivo, po): I

COc1ccc2c3c1O[C@H]1[C@@H](O)C=C[C@H]4[C@@H](C2)N(C)CC[C@@]341 [codeine phosphate, reference compound]
ED50 ([1]; Mus musculus): 19 mg/kg

c1ccc(N2c3ccccc3[C@@H]3CN(CC4CCC4)CC[C@H]32)cc1 [compound of Example 2, (+)-trans-2-(cyclobutylmethyl)-2,3,4,4a,5,9b-hexahydro-5-phenyl-1H-pyrido[4,3-b]indole]
minimal effective dose (locomotor activity; Mus musculus): 3 mg/kg | ED50 ([2]; Rattus norvegicus): 4 mg/kg | major tranquilizing (antipsychotic) activity ([2]; rat, in vivo): major tranquilizer (antipsychotic) activity | Conf rat MED ([3]; rat, in vivo, po): I | minimal effective dose (blood pressure): 3 mg/kg

CN1C(=O)CN=C(c2ccccc2)c2cc(Cl)ccc21 [diazepam, reference compound]
minimal effective dose (locomotor activity; Mus musculus): 3 to 10 mg/kg | minimal effective dose ([3]; Rattus norvegicus, po, read-out: Conf rat MED, with ataxia): 3 to 10 mg/kg | minimal effective dose ([3]; Rattus norvegicus, po, read-out: Rat Conf.): 3 to 10 mg/kg | effect in conflict test [6]: apparent decreased fear in the test animals

CCCC(C)(COC(N)=O)COC(N)=O [meprobamate]
effect in conflict test [6]: apparent decreased fear in the test animals
